Test results as given in patent publication US4663325A, “1-(2,3,4-tri-methoxybenzyl)-4[bis(4-fluorophenyl)methyl] piperazines are useful for treating cerebrovascular disease” (Kanebo Ltd., priority 1984, dated 1987).

Key:
[1] = Acute toxicity (oral, mice); details: mouse, in vivo, fasted male ddY mice, deaths during seven days, Weil method
Protocol: ddY-strain male mice (body weight 18 to 22 g; five per group) were caused to fast 24 hours. Then, each of the compounds of this invention (A, B, C and D) was administered orally, and acute toxicity values (LD50) were determined.
Each of the compounds was dissolved or suspended in a 2% tartaric acid solution containing 20% of dimethylacetamide, and orally administered to the animals. From the number of animals which died during seven days, the LD50 values were calculated by using the Weil method.

[2] = tested on: death induced by collagen and adrenaline; test: Activity of defending thromboembolism-induced death (collagen and adrenaline, mice, oral); assay type: in vivo, ddY-strain male mice; details: Mus musculus, 1 h, one hour before collagen (400 micrograms/kg) and adrenaline (50 micrograms/kg) i.v., male ddY mice, probit method, read-out: ED50 (dose required to defend death induced by collagen and adrenaline to an extent of 50%)
Protocol: The compounds A, B, C and D of the invention and the comparative compounds 1 and 2 were used.
Each of the test compounds was dissolved or suspended in a 1% gum arabic solution, and orally administered to ddY-strain male mice (body weight 18 to 25 g; five per group). […] The dose required to defend death induced by collagen and adrenaline to an extent of 50% (ED50) was determined by the probit method (see The Journal of Pharmacology and Experimental Therapeutics, Vol. 225, page 57, 1983).

[3] = tested on: vertebral blood flow; test: Activity of increasing cerebral blood flow (vertebral blood flow as index, anesthetized dogs, intravenous); assay type: in vivo; details: 1 mg/kg i.v. (right femoral vein), anesthetized mongrel dogs
Protocol: The activity of increasing cerebral blood flow was measured by using the amount of vertebral blood flow as an index. Mongrel dogs of either sex (body weight 11 to 18 kg; four per groups) were anesthetized with sodium pentobarbital (30 mg/kg, by intravenous injection), and the right vertebral artery was isolated from the surrounding tissues. A flow probe was attached to it and led to an electromagnetic flow meter (MFV-2100 made by Nihon Kohden Co., Ltd.). The amount of blood flow was periodically measured [see Meth and Find Exptl Clin Pharmacol, 3 (6), 397 (1981)].
Each of the test compounds was dissolved in a 2% tartaric acid solution containing 20% dimethylacetamide, and administered to the right femoral vein in a dose of 1 mg/kg.

[4] = 0.5 minutes after administration
[5] = 10 minutes after administration
[6] = 20 minutes after administration

Row | SMILES | LD50 at 168 h [1] [mg/kg] | ED50 [2] [mg/kg] | Increase (%) in vertebral blood flow (mean ± standard error) [3, 4] [%] | Increase (%) in vertebral blood flow (mean ± standard error) ([3]; 3 minutes after administration) [%] | Increase (%) in vertebral blood flow (mean ± standard error) ([3]; 5 minutes after administration) [%] | Increase (%) in vertebral blood flow (mean ± standard error) [3, 5] [%] | Increase (%) in vertebral blood flow (mean ± standard error) [3, 6] [%]
1 | COc1ccc(CN2CCN(C(c3ccccc3)c3ccc(F)cc3)CC2)c(OC)c1.O=C(O)/C=C/C(=O)O (stereo not drawn) [A, 1-(2,4-Dimethoxybenzyl)-4-(4-fluorobenzhydryl)-piperazine fumarate] | 300 | 29.6 | 80.1 ± 17.0 | 56.5 ± 15.0 | 39.1 ± 12.2 | 16.2 ± 5.4 | 11.3 ± 4.1
2 | COc1ccc(CN2CCN(C(c3ccc(F)cc3)c3ccc(F)cc3)CC2)c(OC)c1.Cl.Cl.O.O [B, 1-(2,4-Dimethoxybenzyl)-4-[bis(4-fluorophenyl)-methyl]piperazine dihydrochloride dihydrate] | 225 | 24.6 | 105.6 ± 3.9 | 85.8 ± 15.0 | 77.0 ± 15.6 | 47.5 ± 17.7 | 27.1 ± 13.4
3 | COc1ccc(CN2CCN(C(c3ccccc3)c3ccc(F)cc3)CC2)c(OC)c1OC.O=C(O)/C=C/C(=O)O (stereo not drawn) [C, 1-(2,3,4-Trimethoxybenzyl)-4-(4-fluorobenzhydryl)piperazine fumarate] | 650 | 32.7 | 76.7 ± 15.1 | 61.2 ± 14.9 | 50.6 ± 12.4 | 27.7 ± 6.3 | 16.4 ± 4.6
4 | C(=Cc1ccccc1)CN1CCN(C(c2ccccc2)c2ccccc2)CC1 [Cinnarizine, 1-Cinnamyl-4-benzhydrylpiperazine, reference compound] | – | – | 65.6 ± 18.2 | 34.7 ± 15.6 | 17.0 ± 8.7 | 2.9 ± 3.8 | 0
5 | COc1ccc(CN2CCN(C(c3ccc(F)cc3)c3ccc(F)cc3)CC2)c(OC)c1OC.Cl.Cl [Compound D, 1-(2,3,4-Trimethoxybenzyl)-4-[bis(4-fluorophenyl)methyl]piperazine dihydrochloride] | 300 | 7.7 | 95.9 ± 14.5 | 102.6 ± 24.5 | 107.0 ± 23.9 | 87.0 ± 21.1 | 65.1 ± 15.3
6 | COc1ccc(CN2CCN(C(c3ccccc3)c3ccccc3)CC2)c(OC)c1OC.Cl.Cl.O [compound 1, 1-(2,3,4-Trimethoxybenzyl)-4-benzhydrylpiperazine dihydrochloride monohydrate, reference compound] | – | 55.4 | 75.3 ± 20.0 | 39.2 ± 15.3 | 25.6 ± 12.5 | 10.0 ± 5.3 | 5.0 ± 3.3
7 | Cl.Cl.c1ccc(C(c2ccccc2)N2CCN(Cc3ccc4c(c3)OCO4)CC2)cc1 [compound 2, 1-(3,4-Methylenedioxybenzyl)-4-benzhydrylpiperazine dihydrochloride, reference compound] | – | 44.7 | 50.6 ± 13.2 | 13.5 ± 6.9 | 7.4 ± 4.9 | 2.5 ± 3.3 | 0.4 ± 2.2
